From US10428083B2, “Heterocyclylmethyl-thienouracile as antagonists of the adenosine-A2B-receptor” (BAYER PHARMA AKTIENGESELLSCHAFT, priority 2015, dated 2019) come the findings set out here.

The target in this test is human adenosine A2b receptor (Homo sapiens (Human), UniProt P29275). Description: Cellular in vitro reporter gene test for A2b receptor activity (CHO-K1, CRE-luciferase, NECA stimulation). The following applies: recombinant CHO-K1 cell line, CRE-luciferase reporter, antagonism of EC50 concentration of NECA; in some cases means of several determinations, rounded to two significant figures; read-out: A2b receptor IC50. Type of test: cell-based. The protocol: B-1. Cellular In Vitro Tests for Determining A2b Receptor Activity and Adenosine Receptor Selectivity
Chain of human adenosine A2b receptor (P29275 whole entry): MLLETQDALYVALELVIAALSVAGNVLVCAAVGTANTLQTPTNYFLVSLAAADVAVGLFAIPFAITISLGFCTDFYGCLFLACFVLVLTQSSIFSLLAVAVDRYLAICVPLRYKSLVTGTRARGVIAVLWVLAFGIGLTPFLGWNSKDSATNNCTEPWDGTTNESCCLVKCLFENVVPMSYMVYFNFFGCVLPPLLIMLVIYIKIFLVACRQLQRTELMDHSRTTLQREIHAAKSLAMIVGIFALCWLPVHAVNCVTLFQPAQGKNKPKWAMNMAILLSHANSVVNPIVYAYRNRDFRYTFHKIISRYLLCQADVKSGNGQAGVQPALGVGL
In the case of the A2a and A2b cell lines, this is a minimal promoter having a plurality of cAMP-responsive elements (CRE). Stimulation of the Gs-coupled A2b or A2a receptors by NECA ultimately leads, via formation of cAMP, to CRE-dependent induction of luciferase expression, which is detected 3 hours after the start of the incubation with NECA using a detection solution in a suitable luminometer. For testing the antagonists, initially, in a pre-experiment, the concentration of NECA which, at the test day in question, results in half-maximum stimulation of luciferase expression (EC50 concentration) is determined. By joint incubation of this EC50 concentration of NECA with the substances to be tested, it is possible to determine their antagonistic activity.
(In general: A reporter such as luciferase makes a cellular process visible.)

Structures are written as SMILES.

On to `Cc1c(Cn2cc[nH]c2=O)sc2c1c(=O)n(C(C)C)c(=O)n2CC1CCCO1` (single isomer, unassigned) [Example 249, 3-Isopropyl-5-methyl-6-[(2-oxo-2,3-dihydro-1H-imidazol-1-yl)methyl]-1-(tetrahydrofuran-2-ylmethyl)thieno[2,3-d]pyrimidine-2,4(1H,3H)-dione], for which the IC50 – broadly, the concentration that gives 50% inhibition – was determined as 41 nM.

On to `Cc1c(CN2CCNC(=O)C2=O)sc2c1c(=O)n(C(C)C)c(=O)n2CC1CCO1` (racemic) [Example 397, 6-[(2,3-Dioxopiperazin-1-yl)methyl]-3-isopropyl-5-methyl-1-(oxetan-2-ylmethyl)thieno[2,3-d]pyrimidine-2,4(1H,3H)-dione], for which the IC50 was found to be 120 nM.

On to `CCn1c(=O)c2c(C)c(CN3CC(=O)NCC3=O)sc2n(CCC(F)(F)F)c1=O` [Example 497, 6-[(2,5-Dioxopiperazin-1-yl)methyl]-3-ethyl-5-methyl-1-(3,3,3-trifluoropropyl)thieno[2,3-d]pyrimidine-2,4(1H,3H)-dione], for which the IC50 was 730 nM.

Consider `Cc1c(CN2CCN(C(C)C)C2=S)sc2c1c(=O)n(CC(C)C)c(=O)n2CCCF` [Example 304, 1-(3-Fluoropropyl)-3-isobutyl-6-[(3-isopropyl-2-thioxoimidazolidin-1-yl)methyl]-5-methylthieno[2,3-d]pyrimidine-2,4(1H,3H)-dione], for which the concentration for half-maximal inhibition (IC50) came to 73 nM.

Turning to `Cc1c(CN2CCNC2=O)sc2c1c(=O)n(CC(F)(F)F)c(=O)n2CC1CCCO1` (single isomer, unassigned) [Example 211, 5-Methyl-6-[(2-oxoimidazolidin-1-yl)methyl]-1-(tetrahydrofuran-2-ylmethyl)-3-(2,2,2-trifluoroethyl)thieno[2,3-d]pyrimidine-2,4(1H,3H)-dione], the IC50 is 17 nM.

As to `CCn1c(=O)c2c(C)c(Cn3cc[nH]c3=O)sc2n(CC2CCCO2)c1=O` (single isomer, unassigned) [Example 243, 3-Ethyl-5-methyl-6-[(2-oxo-2,3-dihydro-1H-imidazol-1-yl)methyl]-1-(tetrahydrofuran-2-ylmethyl)thieno[2,3-d]pyrimidine-2,4(1H,3H)-dione], the IC50 was 14 nM.

Take `CCn1c(=O)c2c(C)c(CN3CCN(C)C3=O)sc2n(CCC(F)(F)F)c1=O` [Example 103, 3-Ethyl-5-methyl-6-[(3-methyl-2-oxoimidazolidin-1-yl)methyl]-1-(3,3,3-trifluoropropyl)thieno[2,3-d]pyrimidine-2,4(1H,3H)-dione]: the IC50 amounted to 3.5 nM.

In the case of `CCOCCn1c(=O)n(CC(F)(F)F)c(=O)c2c(C)c(CN3CCNC3=S)sc21` [Example 153, 1-(2-Ethoxyethyl)-5-methyl-6-[(2-thioxoimidazolidin-1-yl)methyl]-3-(2,2,2-trifluoroethyl)thieno[2,3-d]pyrimidine-2,4(1H,3H)-dione], the IC50 worked out at 6.4 nM.

Turning to `CCn1c(=O)c2c(C)c(CN3CCNC(=O)C3=O)sc2n(CCC(F)(F)F)c1=O` [Example 394, 6-[(2,3-Dioxopiperazin-1-yl)methyl]-3-ethyl-5-methyl-1-(3,3,3-trifluoropropyl)thieno[2,3-d]pyrimidine-2,4(1H,3H)-dione], the IC50 was found to be 3.2 nM.

With `CCn1c(=O)c2c(C(F)F)c(CN3CCNC3=S)sc2n(CCC(F)(F)F)c1=O` [Example 44, 5-(Difluoromethyl)-3-ethyl-6-[(2-thioxoimidazolidin-1-yl)methyl]-1-(3,3,3-trifluoropropyl)thieno[2,3-d]pyrimidine-2,4(1H,3H)-dione], the IC50 worked out at 5.2 nM.

Take `Cc1c(CN2CCNC2=NC#N)sc2c1c(=O)n(C(C)C)c(=O)n2CC1CCCO1` (single isomer, unassigned) [Example 356, [1-{[3-Isopropyl-5-methyl-2,4-dioxo-1-(tetrahydrofuran-2-ylmethyl)-1,2,3,4-tetrahydrothieno[2,3-d]pyrimidin-6-yl]methyl}imidazolidin-2-ylidene]cyanamide]: the IC50 amounted to 5.1 nM.
